Data: BigSolDB 2.1

COc1ccccc1OCCNCC(O)COc1cccc2[nH]c3ccccc3c12 (stereo not drawn)
solubility (mole fraction)
Conditions	278.15 K	283.15 K	288.15 K	293.15 K	298.15 K	303.15 K	308.15 K	313.15 K
in THF	0.00043	0.00061	0.00085	0.00118	0.00167	0.00227	0.00302	0.004
in acetone	0.00064	0.00088	0.00117	0.00154	0.0021	0.00268	0.00354	0.0046
in ethanol	0.00062	0.00085	0.00112	0.00143	0.00185	0.00246	0.00306	0.00389
in ethyl acetate	0.00063	0.00086	0.00146	0.00187	0.0024	0.00294	0.00371	0.00424
in methanol	0.00063	0.00087	0.00114	0.0015	0.00201	0.00256	0.00329	0.00419
in water	0.0196	0.0232	0.0278	0.033	0.0398	0.0468	0.0552	0.0641
